# Data taken from article PMC10446182, “Reduced steroid activation of elephant shark GR and MR after inserting four amino acids from the DNA-binding domain of lamprey corticoid receptor-1” (PLOS ONE, 2023).
# Read-outs that look alike come from different tables or passages of the source.
# Key:
# Test in all cases: luciferase reporter transactivation in HEK293 cells
# Assay type in all cases: cell-based
# [1] = target: T1, FLAG-tagged wild-type elephant shark GR (Callorhinchus milii, UniProt A0A4W3H7L4)
# T1 construct: full-length, N-terminal FLAG tag, transiently expressed in HEK293 cells
# T1 sequence (A0A4W3H7L4 1-704): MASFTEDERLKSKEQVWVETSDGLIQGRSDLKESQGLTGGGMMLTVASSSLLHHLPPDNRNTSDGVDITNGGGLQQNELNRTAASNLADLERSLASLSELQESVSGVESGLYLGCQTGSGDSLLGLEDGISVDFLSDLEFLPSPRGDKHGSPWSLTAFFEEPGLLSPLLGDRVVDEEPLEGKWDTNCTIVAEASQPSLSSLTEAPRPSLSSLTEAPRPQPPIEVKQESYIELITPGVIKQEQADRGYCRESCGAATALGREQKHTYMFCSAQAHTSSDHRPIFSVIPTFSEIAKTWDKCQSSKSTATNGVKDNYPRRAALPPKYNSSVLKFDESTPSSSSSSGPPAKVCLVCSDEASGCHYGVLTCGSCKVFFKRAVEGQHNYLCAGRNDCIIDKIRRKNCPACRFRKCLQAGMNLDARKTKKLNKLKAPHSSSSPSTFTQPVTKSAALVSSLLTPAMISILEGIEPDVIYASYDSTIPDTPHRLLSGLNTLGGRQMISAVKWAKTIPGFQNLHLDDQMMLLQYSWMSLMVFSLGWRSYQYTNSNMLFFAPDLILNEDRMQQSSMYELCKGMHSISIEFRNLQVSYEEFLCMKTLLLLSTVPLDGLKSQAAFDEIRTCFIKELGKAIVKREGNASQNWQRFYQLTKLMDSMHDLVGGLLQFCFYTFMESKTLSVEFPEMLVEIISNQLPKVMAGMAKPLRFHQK
# Text: (§1) luciferase reporter transactivation in HEK293 cells on FLAG-tagged wild-type elephant shark GR
# [2] = target: T2, FLAG-tagged wild-type elephant shark GR (Callorhinchus milii, UniProt A0A4W3H7L4); conditions: MMTV-luc promoter; agonist; 37 C
# T2 construct: full-length, N-terminal FLAG tag, transiently expressed in HEK293 cells
# Text: as §1
# [3] = target: T3, FLAG-tagged wild-type elephant shark MR (Callorhinchus milii, UniProt A0A4W3I5J5); conditions: MMTV-luc promoter; agonist; 37 C
# T3 construct: gene nr3c2; full-length, N-terminal FLAG tag, transiently expressed in HEK293 cells
# T3 sequence (A0A4W3I5J5 entry or part of it): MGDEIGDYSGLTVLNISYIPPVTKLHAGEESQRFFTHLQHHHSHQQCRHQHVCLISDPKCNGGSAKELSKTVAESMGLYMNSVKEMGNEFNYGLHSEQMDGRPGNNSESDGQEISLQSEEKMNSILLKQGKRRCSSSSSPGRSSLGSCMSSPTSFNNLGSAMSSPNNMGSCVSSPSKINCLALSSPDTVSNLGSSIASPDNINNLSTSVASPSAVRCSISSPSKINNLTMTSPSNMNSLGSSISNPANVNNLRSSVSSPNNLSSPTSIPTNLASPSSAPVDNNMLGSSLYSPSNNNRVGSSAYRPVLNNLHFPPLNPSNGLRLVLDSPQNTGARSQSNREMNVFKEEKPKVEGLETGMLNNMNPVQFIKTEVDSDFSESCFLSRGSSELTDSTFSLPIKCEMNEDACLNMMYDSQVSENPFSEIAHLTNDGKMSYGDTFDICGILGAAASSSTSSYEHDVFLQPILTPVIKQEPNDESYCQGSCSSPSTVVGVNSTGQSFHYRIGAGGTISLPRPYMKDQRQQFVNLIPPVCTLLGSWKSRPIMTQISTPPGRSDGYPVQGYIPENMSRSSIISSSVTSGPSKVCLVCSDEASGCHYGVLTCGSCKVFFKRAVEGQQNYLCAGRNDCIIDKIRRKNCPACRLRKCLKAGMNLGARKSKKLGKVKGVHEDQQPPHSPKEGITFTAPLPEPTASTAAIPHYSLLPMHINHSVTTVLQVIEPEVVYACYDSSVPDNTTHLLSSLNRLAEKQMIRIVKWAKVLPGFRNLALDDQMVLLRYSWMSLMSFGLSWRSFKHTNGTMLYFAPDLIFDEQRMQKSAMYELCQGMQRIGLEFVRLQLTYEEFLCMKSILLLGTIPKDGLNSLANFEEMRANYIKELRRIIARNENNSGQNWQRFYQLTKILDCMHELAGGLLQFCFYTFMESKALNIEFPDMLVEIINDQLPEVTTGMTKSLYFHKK
# Text: luciferase reporter transactivation in HEK293 cells on FLAG-tagged wild-type elephant shark MR
SMILES,EC50 [1],EC50 [2],EC50 [3]
C[C@]12CCC(=O)C=C1CC[C@@H]1[C@@H]2[C@@H](O)C[C@@]2(C)[C@H]1CC[C@]2(O)C(=O)CO [Cortisol],25.2 nM,13.9 nM,0.5 nM
"C[C@]12CC[C@H]3[C@@H](CCC4=CC(=O)CC[C@@]43C)[C@@H]1CC[C@@H]2C(=O)CO [DOC, 11-deoxycorticosterone]",13 nM,–,–
"C[C@]12CCC(=O)C=C1CC[C@@H]1[C@@H]2CC[C@@]2(C)[C@H]1CC[C@]2(O)C(=O)CO [S, 11-deoxycortisol]",–,–,0.13 nM

# Continued, values first:
EC50 [1],EC50 [2],EC50 [3],SMILES
14.1 nM,–,–,"C[C@]12CCC(=O)C=C1CC[C@@H]1[C@@H]2[C@@H](O)C[C@]2(C=O)[C@@H](C(=O)CO)CC[C@@H]12 [Aldo, aldosterone]"
6 nM,–,–,"C[C@]12C[C@H](O)[C@H]3[C@@H](CCC4=CC(=O)CC[C@@]43C)[C@@H]1CC[C@@H]2C(=O)CO [CORT, Corticosterone]"
